Data published in PMC5520929, “Bilirubin neurotoxicity is associated with proteasome inhibition” (Cell Death & Disease, 2017).

Target: T1, 20S proteasome chymotrypsin-like (CT-like) peptidase (Homo sapiens, UniProt P28074)
T1 construct: gene PSMB5; purified human 20S proteasomes; with 20S proteasome
T1 sequence (P28074 60-263): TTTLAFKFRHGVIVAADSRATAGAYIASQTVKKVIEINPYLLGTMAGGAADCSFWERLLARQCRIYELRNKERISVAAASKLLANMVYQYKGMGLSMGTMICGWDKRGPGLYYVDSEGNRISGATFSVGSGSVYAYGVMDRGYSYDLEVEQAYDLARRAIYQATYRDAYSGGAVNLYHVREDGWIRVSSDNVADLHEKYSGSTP
Experiment: fluorogenic Suc-LLVY-AMC peptidase assay on purified human
Assay type: biochemical

IC50: ~20 µM
SMILES: C=CC1=C(C)/C(=C/c2[nH]c(Cc3[nH]c(/C=C4\NC(=O)C(C)=C4C=C)c(C)c3CCC(=O)O)c(CCC(=O)O)c2C)NC1=O [Bil, bilirubin]
